Results as given in patent US8410161B2, “Thioxanthone ring system derivatives” (National Defense Medical Center, priority 2010, dated 2013).

What was measured:
[1] = system: A control cell lines; assay: MTT assay, A control cell lines (lung cancer cell); format: cell-based
From the text: Please refer to Table 1 and FIGS. 4A-4C. According to a MTT assay (Table 1), various cell viabilities of the A control cell lines can be obtained and illustrated in FIG. 4A while the compounds No. 2˜30 are used to treat A control cell lines, wherein A control cell lines are lung cancer cell.

[2] = system: A3 cell lines; assay: MTT assay, A3 cell lines (lung cancer stem cell); format: cell-based
From the text: Please to FIG. 4B, various cell viabilities of the A3 cell lines can be obtained through the MTT assay and illustrated in FIG. 4B while the compounds No. 1˜30 are used to treat A3 cell lines, wherein A3 cell lines are lung cancer stem cell.

[3] = MTT assay, HEL299 fibroblast; format: cell-based; conditions: human
From the text: Please refer to FIG. 4C, various cell viabilities of the HEL299 cell lines can be obtained through the MTT assay while the compounds No. 1˜30 are used to treat HEL299 cell lines, wherein HEL299 cell lines are fibroblast.

[4] = system: CCRF-CEM; assay: NCI in vitro DTP human cell line screen, CCRF-CEM; format: cell-based; conditions: Leukemia, 1.00E−5 Molar
Experimental: (§1) Then, a cell toxicity assay of the cancer lines made by National Cancer Institute will be discussed as follows. The cell toxicity assay is performed by choosing ten compounds (existing certification numbers) from the 59 compounds disclosed in the present invention first.

[5] = system: HL-60(TB); assay: NCI in vitro DTP human cell line screen, HL-60(TB); format: cell-based; conditions: Leukemia, 1.00E−5 Molar
Experimental: as §1

[6] = system: K562; assay: NCI in vitro DTP human cell line screen, K562; format: cell-based; conditions: Leukemia, 1.00E−5 Molar
Experimental: as §1

[7] = system: MOLT-4; assay: NCI in vitro DTP human cell line screen, MOLT-4; format: cell-based; conditions: Leukemia, 1.00E−5 Molar
Experimental: as §1

[8] = system: RPMI-8226; assay: NCI in vitro DTP human cell line screen, RPMI-8226; format: cell-based; conditions: Leukemia, 1.00E−5 Molar
Experimental: as §1

[9] = system: SR; assay: NCI in vitro DTP human cell line screen, SR; format: cell-based; conditions: Leukemia, 1.00E−5 Molar
Experimental: as §1

[10] = system: EKVX; assay: NCI in vitro DTP human cell line screen, EKVX; format: cell-based; conditions: Non-Small Cell Lung Cancer, 1.00E−5 Molar
Experimental: as §1

[11] = system: HOP-92; assay: NCI in vitro DTP human cell line screen, HOP-92; format: cell-based; conditions: Non-Small Cell Lung Cancer, 1.00E−5 Molar
Experimental: as §1

[12] = system: NCI-H226; assay: NCI in vitro DTP human cell line screen, NCI-H226; format: cell-based; conditions: Non-Small Cell Lung Cancer, 1.00E−5 Molar
Experimental: as §1

[13] = system: NCI-H23; assay: NCI in vitro DTP human cell line screen, NCI-H23; format: cell-based; conditions: Non-Small Cell Lung Cancer, 1.00E−5 Molar
Experimental: as §1

[14] = system: NCI-H322M; assay: NCI in vitro DTP human cell line screen, NCI-H322M; format: cell-based; conditions: Non-Small Cell Lung Cancer, 1.00E−5 Molar
Experimental: as §1

[15] = system: NCI-H460; assay: NCI in vitro DTP human cell line screen, NCI-H460; format: cell-based; conditions: Non-Small Cell Lung Cancer, 1.00E−5 Molar
Experimental: as §1

[16] = system: NCI-H522; assay: NCI in vitro DTP human cell line screen, NCI-H522; format: cell-based; conditions: Non-Small Cell Lung Cancer, 1.00E−5 Molar
Experimental: as §1

[17] = system: COLO 205; assay: NCI in vitro DTP human cell line screen, COLO 205; format: cell-based; conditions: Colon Cancer, 1.00E−5 Molar
Experimental: as §1

[18] = system: HCC-2998; assay: NCI in vitro DTP human cell line screen, HCC-2998; format: cell-based; conditions: Colon Cancer, 1.00E−5 Molar
Experimental: as §1

[19] = system: HCT-116; assay: NCI in vitro DTP human cell line screen, HCT-116; format: cell-based; conditions: Colon Cancer, 1.00E−5 Molar
Experimental: as §1

[20] = system: HCT-15; assay: NCI in vitro DTP human cell line screen, HCT-15; format: cell-based; conditions: Colon Cancer, 1.00E−5 Molar
Experimental: as §1

[21] = system: HT29; assay: NCI in vitro DTP human cell line screen, HT29; format: cell-based; conditions: Colon Cancer, 1.00E−5 Molar
Experimental: as §1

[22] = system: KM12; assay: NCI in vitro DTP human cell line screen, KM12; format: cell-based; conditions: Colon Cancer, 1.00E−5 Molar
Experimental: as §1

[23] = system: SW-620; assay: NCI in vitro DTP human cell line screen, SW-620; format: cell-based; conditions: Colon Cancer, 1.00E−5 Molar
Experimental: as §1

[24] = system: SF-268; assay: NCI in vitro DTP human cell line screen, SF-268; format: cell-based; conditions: CNS Cancer, 1.00E−5 Molar
Experimental: as §1

[25] = system: SF-295; assay: NCI in vitro DTP human cell line screen, SF-295; format: cell-based; conditions: CNS Cancer, 1.00E−5 Molar
Experimental: as §1

[26] = system: SF-539; assay: NCI in vitro DTP human cell line screen, SF-539; format: cell-based; conditions: CNS Cancer, 1.00E−5 Molar
Experimental: as §1

[27] = system: SNB-75; assay: NCI in vitro DTP human cell line screen, SNB-75; format: cell-based; conditions: CNS Cancer, 1.00E−5 Molar
Experimental: as §1

[28] = system: U251; assay: NCI in vitro DTP human cell line screen, U251; format: cell-based; conditions: CNS Cancer, 1.00E−5 Molar
Experimental: as §1

[29] = system: LOX IMVI; assay: NCI in vitro DTP human cell line screen, LOX IMVI; format: cell-based; conditions: Melanoma, 1.00E−5 Molar
Experimental: as §1

[30] = system: MALME-3M; assay: NCI in vitro DTP human cell line screen, MALME-3M; format: cell-based; conditions: Melanoma, 1.00E−5 Molar
Experimental: as §1

[31] = system: M14; assay: NCI in vitro DTP human cell line screen, M14; format: cell-based; conditions: Melanoma, 1.00E−5 Molar
Experimental: as §1

[32] = system: MDA-MB-435; assay: NCI in vitro DTP human cell line screen, MDA-MB-435; format: cell-based; conditions: Melanoma, 1.00E−5 Molar
Experimental: as §1

[33] = system: SK-MEL-2; assay: NCI in vitro DTP human cell line screen, SK-MEL-2; format: cell-based; conditions: Melanoma, 1.00E−5 Molar
Experimental: as §1

[34] = system: SK-MEL-28; assay: NCI in vitro DTP human cell line screen, SK-MEL-28; format: cell-based; conditions: Melanoma, 1.00E−5 Molar
Experimental: as §1

[35] = system: SK-MEL-5; assay: NCI in vitro DTP human cell line screen, SK-MEL-5; format: cell-based; conditions: Melanoma, 1.00E−5 Molar
Experimental: as §1

[36] = system: UACC-257; assay: NCI in vitro DTP human cell line screen, UACC-257; format: cell-based; conditions: Melanoma, 1.00E−5 Molar
Experimental: as §1

[37] = system: IGROV1; assay: NCI in vitro DTP human cell line screen, IGROV1; format: cell-based; conditions: Ovarian Cancer, 1.00E−5 Molar
Experimental: as §1

[38] = system: OVCAR-3; assay: NCI in vitro DTP human cell line screen, OVCAR-3; format: cell-based; conditions: Ovarian Cancer, 1.00E−5 Molar
Experimental: as §1

[39] = system: OVCAR-4; assay: NCI in vitro DTP human cell line screen, OVCAR-4; format: cell-based; conditions: Ovarian Cancer, 1.00E−5 Molar
Experimental: as §1

[40] = system: OVCAR-5; assay: NCI in vitro DTP human cell line screen, OVCAR-5; format: cell-based; conditions: Ovarian Cancer, 1.00E−5 Molar
Experimental: as §1

[41] = system: OVCAR-8; assay: NCI in vitro DTP human cell line screen, OVCAR-8; format: cell-based; conditions: Ovarian Cancer, 1.00E−5 Molar
Experimental: as §1

[42] = system: NCI/ADR-RES; assay: NCI in vitro DTP human cell line screen, NCI/ADR-RES; format: cell-based; conditions: Ovarian Cancer, 1.00E−5 Molar
Experimental: as §1

[43] = system: SK-OV-3; assay: NCI in vitro DTP human cell line screen, SK-OV-3; format: cell-based; conditions: Ovarian Cancer, 1.00E−5 Molar
Experimental: as §1

[44] = system: 786-0; assay: NCI in vitro DTP human cell line screen, 786-0; format: cell-based; conditions: Renal Cancer, 1.00E−5 Molar
Experimental: as §1

[45] = system: ACHN; assay: NCI in vitro DTP human cell line screen, ACHN; format: cell-based; conditions: Renal Cancer, 1.00E−5 Molar
Experimental: as §1

[46] = system: CAKI-1; assay: NCI in vitro DTP human cell line screen, CAKI-1; format: cell-based; conditions: Renal Cancer, 1.00E−5 Molar
Experimental: as §1

[47] = system: TK-10; assay: NCI in vitro DTP human cell line screen, TK-10; format: cell-based; conditions: Renal Cancer, 1.00E−5 Molar
Experimental: as §1

[48] = system: UO-31; assay: NCI in vitro DTP human cell line screen, UO-31; format: cell-based; conditions: Renal Cancer, 1.00E−5 Molar
Experimental: as §1

[49] = system: PC-3; assay: NCI in vitro DTP human cell line screen, PC-3; format: cell-based; conditions: Prostate Cancer, 1.00E−5 Molar
Experimental: as §1

[50] = system: DU145; assay: NCI in vitro DTP human cell line screen, DU145; format: cell-based; conditions: Prostate Cancer, 1.00E−5 Molar
Experimental: as §1

[51] = system: MCF7; assay: NCI in vitro DTP human cell line screen, MCF7; format: cell-based; conditions: Breast Cancer, 1.00E−5 Molar
Experimental: as §1

[52] = system: MDA-MB-231/ATCC; assay: NCI in vitro DTP human cell line screen, MDA-MB-231/ATCC; format: cell-based; conditions: Breast Cancer, 1.00E−5 Molar
Experimental: as §1

[53] = system: HS 578-T; assay: NCI in vitro DTP human cell line screen, HS 578-T; format: cell-based; conditions: Breast Cancer, 1.00E−5 Molar
Experimental: as §1

[54] = system: BT-549; assay: NCI in vitro DTP human cell line screen, BT-549; format: cell-based; conditions: Breast Cancer, 1.00E−5 Molar
Experimental: as §1

[55] = system: T-47D; assay: NCI in vitro DTP human cell line screen, T-47D; format: cell-based; conditions: Breast Cancer, 1.00E−5 Molar
Experimental: as §1

[56] = system: MDA-MB-468; assay: NCI in vitro DTP human cell line screen, MDA-MB-468; format: cell-based; conditions: Breast Cancer, 1.00E−5 Molar
Experimental: as §1

[57] = system: 60 cancer lines; assay: NCI cell toxicity assay of 60 cancer lines, whole panel summary; format: cell-based, human; conditions: mean over all cell lines; 1.00E−5 Molar
Experimental: as §1

SMILES: Cc1cccc(C)c1Sc1ccc2c(=O)c3ccccc3sc2c1Cl [No. 12, 4-Chloro-3-(2,6-dimethylphenylthio)-9H-thioxanthen-9-one]
- cell viabilities of A control cell lines (MTT assay) [1]: 103 ± 5.86%
- cell viabilities of A3 cell lines (MTT assay) [2]: 102 ± 9.52%
- viability [3]: 101 ± 9.52%
- Growth Percent [4]: 88.07%
- Growth Percent [5]: 109.07%
- Growth Percent [6]: 97.86%
- Growth Percent [7]: 104.33%
- Growth Percent [8]: 101.60%
- Growth Percent [9]: 95.93%
- Growth Percent [10]: 103.89%
- Growth Percent [11]: 88.79%
- Growth Percent [12]: 109.77%
- Growth Percent [13]: 93.96%
- Growth Percent [14]: 113.78%
- Growth Percent [15]: 110.85%
- Growth Percent [16]: 100.28%
- Growth Percent [17]: 110.46%
- Growth Percent [18]: 103.54%
- Growth Percent [19]: 105.21%
- Growth Percent [20]: 99.05%
- Growth Percent [21]: 103.86%
- Growth Percent [22]: 113.08%
- Growth Percent [23]: 105.40%
- Growth Percent [24]: 98.33%
- Growth Percent [25]: 98.15%
- Growth Percent [26]: 106.48%
- Growth Percent [27]: 90.00%
- Growth Percent [28]: 95.70%
- Growth Percent [29]: 105.37%
- Growth Percent [30]: 100.81%
- Growth Percent [31]: 105.63%
- Growth Percent [32]: 107.09%
- Growth Percent [33]: 108.94%
- Growth Percent [34]: 110.00%
- Growth Percent [35]: 104.77%
- Growth Percent [36]: 92.09%
- Growth Percent [37]: 98.49%
- Growth Percent [38]: 113.05%
- Growth Percent [39]: 107.51%
- Growth Percent [40]: 96.86%
- Growth Percent [41]: 96.86%
- Growth Percent [42]: 105.14%
- Growth Percent [43]: 111.32%
- Growth Percent [44]: 108.98%
- Growth Percent [45]: 103.68%
- Growth Percent [46]: 89.35%
- Growth Percent [47]: 99.22%
- Growth Percent [48]: 87.03%
- Growth Percent [49]: 98.56%
- Growth Percent [50]: 109.56%
- Growth Percent [51]: 94.01%
- Growth Percent [52]: 108.12%
- Growth Percent [53]: 107.64%
- Growth Percent [54]: 105.28%
- Growth Percent [55]: 97.56%
- Growth Percent [56]: 113.20%
- Growth Percent, Mean [57]: 102.52%
